From US11547130B2, “Nanocomposite bacteriostatic material and a preparation method and an application thereof” (Tianjin University of Science and Technology, priority 2019, dated 2023) come the findings set out here.

For this experiment, the system named is Bacillus subtilis. Put plainly: Shake-flask antibacterial test, viable count by dilution spread plate method. The format is cell-based. As to the method:
Bacillus subtilis was selected as a strain for the antibacterial test. The Bacillus subtilis was cultured for overnight in a shake flask first, and a bacteria solution having a concentration of 10^8 CFU/mL was selected as a seed solution for later use. Multiple 100 mL triangular flasks provided with 30 mL of LB liquid medium were taken, and sterilized for 20 min at 121° C. The triangular flasks were divided into four groups, three triangular flasks in each group for parallel test.
The Bacillus subtilis solution having the concentration of 10^8 CFU/mL was inoculated to the above four groups as per an inoculum size of 2% (v/v), and respectively cultured for 4 h, 8 h, 12 h, 24 h and 28 h on a shaker, where a culture condition was 37° C. and 180 r/min. Then, a sample at every timing was taken, and a viable count in each shake flask was measured via a dilution spread plate method to embody the antibacterial activity.
The Bacillus subtilis solution having the concentration of 10^8 CFU/mL was inoculated to the above four groups as per an inoculum size of 2% (v/v), and respectively cultured for 4 h, 8 h, 12 h, 24 h and 28 h on a shaker, where a culture condition was 37° C. and 180 r/min, for sampling. Then, a sample was taken, and a viable count in each shake flask at every moment was measured via a dilution spread plate method to embody the antibacterial activity.

As for nisin, the “concentration of bacteria in the shake flask” value (Experimental example 1 (Embodiment 1 materials, nisin 1 g/L), 1 mL agent in 30 mL LB, 8-12 h in culture) is ≥ 10^7 CFU/mL. For the same substance, under “Experimental example 1 (Embodiment 1 materials, nisin 1 g/L), 1 mL agent in 30 mL LB, 4 h in culture, 37° C.”, the “concentration of viable bacteria in the shake flask” value is reported as ≥ 10^4 CFU/mL. Moreover, the “antibacterial activity in words” value (Experimental example 1 (nisin 1 g/L), nisin at 8 h, empty carrier at 24-28 h, nano-composite at 28 h) is on record as “lost bacteriostatic action at 8 h” and the “antibacterial activity in words” value (Experimental example 2 (Embodiment 2 materials, nisin 10 g/L), at 16 h) is “greatly reduced”.
